The source made the active and inactive calls. How the calls were made is not given here.
Tested on: CCRIS mutagenicity, Ames/micronucleus/aberration tests
Assay: CCRIS mutagenicity studies
[1] = Test System: AMES SALMONELLA TYPHIMURIUM, Strain/Indicator: TA97, Metabolic Activation: NONE, Method: PREINCUBATION
[2] = Test System: AMES SALMONELLA TYPHIMURIUM, Strain/Indicator: TA98, Metabolic Activation: NONE, Method: PREINCUBATION
[3] = Test System: AMES SALMONELLA TYPHIMURIUM, Strain/Indicator: TA100, Metabolic Activation: NONE, Method: PREINCUBATION
[4] = Test System: AMES SALMONELLA TYPHIMURIUM, Strain/Indicator: TA102, Metabolic Activation: NONE, Method: PREINCUBATION
[5] = Test System: AMES SALMONELLA TYPHIMURIUM, Strain/Indicator: TA100, Metabolic Activation: NONE, Method: STANDARD PLATE

Measured: mutagenic call

CC(=O)NNc1ccccc1
inactive: Test System: AMES SALMONELLA TYPHIMURIUM, Strain/Indicator: TA97, Metabolic Activation: HAMSTER, LIVER, S-9, AROCLOR 1254 (5%), Method: PREINCUBATION inactive; negative | Test System: AMES SALMONELLA TYPHIMURIUM, Strain/Indicator: TA97, Metabolic Activation: HAMSTER, LIVER, S-9, AROCLOR 1254 (10%), Method: PREINCUBATION inactive; negative | Test System: AMES SALMONELLA TYPHIMURIUM, Strain/Indicator: TA97, Metabolic Activation: RAT, LIVER, S-9, AROCLOR 1254 (5, 10 OR 30%), Method: PREINCUBATION inactive; negative | Test System: AMES SALMONELLA TYPHIMURIUM, Strain/Indicator: TA98, Metabolic Activation: HAMSTER, LIVER, S-9, AROCLOR 1254 (5, 10 OR 30%), Method: PREINCUBATION inactive; negative | [2] inactive; negative | Test System: AMES SALMONELLA TYPHIMURIUM, Strain/Indicator: TA98, Metabolic Activation: RAT, LIVER, S-9, AROCLOR 1254 (5, 10 OR 30%), Method: PREINCUBATION inactive; negative | Test System: AMES SALMONELLA TYPHIMURIUM, Strain/Indicator: TA100, Metabolic Activation: HAMSTER, LIVER, S-9, AROCLOR 1254 (5%), Method: PREINCUBATION inactive; negative | Test System: AMES SALMONELLA TYPHIMURIUM, Strain/Indicator: TA100, Metabolic Activation: HAMSTER, LIVER, S-9, AROCLOR 1254 (10%), Method: PREINCUBATION inactive; negative | Test System: AMES SALMONELLA TYPHIMURIUM, Strain/Indicator: TA100, Metabolic Activation: HAMSTER, LIVER, S-9, AROCLOR 1254 (30%), Method: PREINCUBATION inactive; negative | [3] inactive; negative | Test System: AMES SALMONELLA TYPHIMURIUM, Strain/Indicator: TA100, Metabolic Activation: RAT, LIVER, S-9, AROCLOR 1254 (5%), Method: PREINCUBATION inactive; negative | Test System: AMES SALMONELLA TYPHIMURIUM, Strain/Indicator: TA100, Metabolic Activation: RAT, LIVER, S-9, AROCLOR 1254 (10%), Method: PREINCUBATION inactive; negative | Test System: AMES SALMONELLA TYPHIMURIUM, Strain/Indicator: TA100, Metabolic Activation: RAT, LIVER, S-9, AROCLOR 1254 (30%), Method: PREINCUBATION inactive; negative | Test System: AMES SALMONELLA TYPHIMURIUM, Strain/Indicator: TA1535, Metabolic Activation: HAMSTER, LIVER, S-9, AROCLOR 1254 (10%), Method: PREINCUBATION inactive; negative | Test System: AMES SALMONELLA TYPHIMURIUM, Strain/Indicator: TA1535, Metabolic Activation: HAMSTER, LIVER, S-9, AROCLOR 1254 (30%), Method: PREINCUBATION inactive; negative | Test System: AMES SALMONELLA TYPHIMURIUM, Strain/Indicator: TA1535, Metabolic Activation: RAT, LIVER, S-9, AROCLOR 1254 (5%), Method: PREINCUBATION inactive; negative | Test System: AMES SALMONELLA TYPHIMURIUM, Strain/Indicator: TA1535, Metabolic Activation: RAT, LIVER, S-9, AROCLOR 1254 (10%), Method: PREINCUBATION inactive; negative | Test System: AMES SALMONELLA TYPHIMURIUM, Strain/Indicator: TA1535, Metabolic Activation: RAT, LIVER, S-9, AROCLOR 1254 (30%), Method: PREINCUBATION inactive; negative
active: Test System: AMES SALMONELLA TYPHIMURIUM, Strain/Indicator: TA97, Metabolic Activation: HAMSTER, LIVER, S-9, AROCLOR 1254 (30%), Method: PREINCUBATION active; positive | [1] active; positive | Test System: AMES SALMONELLA TYPHIMURIUM, Strain/Indicator: TA1535, Metabolic Activation: NONE, Method: PREINCUBATION active; positive

II
active: End Point: IN VITRO CHROMOSOMAL ABERRATIONS, Test System: SYRIAN HAMSTER EMBRYO (SHE) CELLS, Metabolic Activation: NONE active; positive (structural changes)

Nc1c(C(=O)N/N=C/c2ccccc2)[nH]c2ccccc12
inactive: [1] inactive; negative | Test System: AMES SALMONELLA TYPHIMURIUM, Strain/Indicator: TA97, Metabolic Activation: S-9 (10%), Method: PREINCUBATION inactive; negative | [2] inactive; negative | Test System: AMES SALMONELLA TYPHIMURIUM, Strain/Indicator: TA98, Metabolic Activation: S-9 (10%), Method: PREINCUBATION inactive; negative | [3] inactive; negative | Test System: AMES SALMONELLA TYPHIMURIUM, Strain/Indicator: TA100, Metabolic Activation: S-9 (10%), Method: PREINCUBATION inactive; negative | [4] inactive; negative | Test System: AMES SALMONELLA TYPHIMURIUM, Strain/Indicator: TA102, Metabolic Activation: S-9 (10%), Method: PREINCUBATION inactive; negative

FC(F)(F)CC(F)(F)F
inactive: Test System: AMES SALMONELLA TYPHIMURIUM, Strain/Indicator: TA97, Metabolic Activation: NONE, Method: CLOSED GLASS VESSEL inactive; negative | Test System: AMES SALMONELLA TYPHIMURIUM, Strain/Indicator: TA97, Metabolic Activation: RAT LIVER S-9, AROCLOR 1254, Method: CLOSED GLASS VESSEL inactive; negative | Test System: AMES SALMONELLA TYPHIMURIUM, Strain/Indicator: TA98, Metabolic Activation: NONE, Method: CLOSED GLASS VESSEL inactive; negative | Test System: AMES SALMONELLA TYPHIMURIUM, Strain/Indicator: TA98, Metabolic Activation: RAT LIVER S-9, AROCLOR 1254, Method: CLOSED GLASS VESSEL inactive; negative | Test System: AMES SALMONELLA TYPHIMURIUM, Strain/Indicator: TA100, Metabolic Activation: NONE, Method: CLOSED GLASS VESSEL inactive; negative | Test System: AMES SALMONELLA TYPHIMURIUM, Strain/Indicator: TA100, Metabolic Activation: RAT LIVER S-9, AROCLOR 1254, Method: CLOSED GLASS VESSEL inactive; negative | Test System: AMES SALMONELLA TYPHIMURIUM, Strain/Indicator: TA1535, Metabolic Activation: NONE, Method: CLOSED GLASS VESSEL inactive; negative | Test System: AMES SALMONELLA TYPHIMURIUM, Strain/Indicator: TA1535, Metabolic Activation: RAT LIVER S-9, AROCLOR 1254, Method: CLOSED GLASS VESSEL inactive; negative | Test System: ESCHERICHIA COLI, Strain/Indicator: WP2 UVR A, Metabolic Activation: NONE, Method: CLOSED GLASS VESSEL inactive; negative | Test System: ESCHERICHIA COLI, Strain/Indicator: WP2 UVR A, Metabolic Activation: RAT LIVER S-9, AROCLOR 1254, Method: CLOSED GLASS VESSEL inactive; negative

Cc1cccc2c([N+](=O)[O-])cc[n+]([O-])c12
active: Test System: UDS RODENT PRIMARY CELLS, Strain/Indicator: THY INCORP (NON-S-PHASE), Metabolic Activation: NONE, Method: AUTORADIOGRAPHY active; positive

CC(=O)C=O
active: [2] active; positive | [3] active; positive | [5] active; positive | Test System: AMES SALMONELLA TYPHIMURIUM, Strain/Indicator: TA100, Metabolic Activation: RAT, LIVER, S-9, AROCLOR 1254, Method: PREINCUBATION active; positive | [4] active; positive | Test System: AMES SALMONELLA TYPHIMURIUM, Strain/Indicator: TA102, Metabolic Activation: RAT, LIVER, S-9, AROCLOR 1254, Method: PREINCUBATION active; positive | Test System: AMES SALMONELLA TYPHIMURIUM, Strain/Indicator: TA102, Metabolic Activation: RAT, LIVER, S-9, PHENOBARBITAL AND BETA-NAPHTHOFLAVONE, Method: PREINCUBATION active; positive | Test System: AMES SALMONELLA TYPHIMURIUM, Strain/Indicator: TA104, Metabolic Activation: NONE, Method: PREINCUBATION active; positive | Test System: AMES SALMONELLA TYPHIMURIUM, Strain/Indicator: TA104, Metabolic Activation: RAT, LIVER, S-9, PHENOBARBITAL AND BETA-NAPHTHOFLAVONE, Method: PREINCUBATION active; positive | Test System: AMES SALMONELLA TYPHIMURIUM, Strain/Indicator: TA2638, Metabolic Activation: NONE, Method: PREINCUBATION active; positive | Test System: AMES SALMONELLA TYPHIMURIUM, Strain/Indicator: TA2659, Metabolic Activation: NONE, Method: PREINCUBATION active; positive | Test System: CHINESE HAMSTER V-79, Strain/Indicator: V-79/6-THIOGUANINE, Metabolic Activation: NONE, Method: PREINCUBATION active; positive | Test System: CHINESE HAMSTER V-79, Strain/Indicator: V-79/6-THIOGUANINE, Metabolic Activation: RAT HEPATOCYTES, Method: PREINCUBATION active; positive
inactive: Test System: AMES SALMONELLA TYPHIMURIUM, Strain/Indicator: TA98, Metabolic Activation: RAT, LIVER, S-9, AROCLOR 1254, Method: PREINCUBATION inactive; negative

Cc1cc(C)c(CN2C3c4ccccc4-c4ccccc4C32)c(C)c1 (stereo unspecified)
active: [5] active; positive
